Molecules are shown by their SMILES. pKi: −log10 of the molar value.

Drawing on ChEMBL document CHEMBL1131561, “Peptidomimetic aminomethylene ketone inhibitors of interleukin-1 beta-converting enzyme (ICE)” (Bioorg Med Chem Lett, 1998), this text covers Ki for 30 compounds.

The assay has as its target T1, Caspase-1 (Homo sapiens, UniProt P29466).
T1 sequence (P29466 whole entry): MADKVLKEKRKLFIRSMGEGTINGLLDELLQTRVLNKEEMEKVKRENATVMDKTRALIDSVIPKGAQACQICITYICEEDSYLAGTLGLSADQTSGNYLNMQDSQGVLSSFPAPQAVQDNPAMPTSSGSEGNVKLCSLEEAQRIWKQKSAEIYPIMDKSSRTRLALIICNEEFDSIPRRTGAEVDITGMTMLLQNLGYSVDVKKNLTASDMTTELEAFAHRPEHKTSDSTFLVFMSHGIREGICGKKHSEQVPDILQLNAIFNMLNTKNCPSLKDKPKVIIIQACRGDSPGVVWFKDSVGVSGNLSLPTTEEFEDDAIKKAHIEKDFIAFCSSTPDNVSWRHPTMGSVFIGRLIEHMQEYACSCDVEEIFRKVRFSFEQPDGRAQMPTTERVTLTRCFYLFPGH
Briefly: Inhibition of human recombinant IL-1 beta converting enzyme.
For the compound `CCC(C(=O)N[C@@H](CC(=O)O)C(=O)CNCCc1ccccc1)n1cccc(NC(=O)c2ccc3ccccc3c2)c1=O` (stereo not given in full), the pKi was 9.43.
`CCC(C(=O)NC(CC(=O)O)C(=O)CN1CCN(C)CC1)n1cccc(NC(=O)c2ccc3ccccc3c2)c1=O` (stereo not given): the pKi is 7.20.
With `CCC(C(=O)N[C@@H](CC(=O)O)C(=O)CN(C)Cc1ccccc1)n1cccc(NC(=O)c2ccc3ccccc3c2)c1=O` (stereo not given in full) the figure was 7.24; with `CCC(C(=O)NC(CC(=O)O)C(=O)CN1CCSCC1)n1cccc(NC(=O)c2ccc3ccccc3c2)c1=O` (stereo not given), 7.95; with `CCC(C(=O)NC(CC(=O)O)C(=O)Cn1ccc(=O)cc1)n1cccc(NC(=O)c2ccc3ccccc3c2)c1=O` (stereo not given), 6.40.
Next, `CCOC(=O)C1CCN(CC(=O)C(CC(=O)O)NC(=O)C(CC)n2cccc(NC(=O)c3ccc4ccccc4c3)c2=O)CC1` (stereo not given): 8.10; `CCC(C(=O)NC(CC(=O)O)C(=O)CN1CCOCC1)n1cccc(NC(=O)c2ccc3ccccc3c2)c1=O` (stereo not given): 7.35.
Next, `CCCC(=O)NCC(=O)C(CC(=O)O)NC(=O)C(CC)n1cccc(NC(=O)c2ccc3ccccc3c2)c1=O` (stereo not given): 7.09; `CCC(C(=O)N[C@@H](CC(=O)O)C(=O)CN[C@@H](Cc1ccccc1)C(N)=O)n1cccc(NC(=O)c2ccc3ccccc3c2)c1=O` (stereo not given in full): 7.11; `CCC(C(=O)NC(CC(=O)O)C(=O)CN1CCNCC1)n1cccc(NC(=O)c2ccc3ccccc3c2)c1=O` (stereo not given): 6.39.
For `CCCCN(C)CC(=O)[C@H](CC(=O)O)NC(=O)C(CC)n1cccc(NC(=O)c2ccc3ccccc3c2)c1=O` (stereo not given in full), the pKi is 8.51.
As for `CCC(C(=O)NC(CC(=O)O)C(=O)CNC(C)=O)n1cccc(NC(=O)c2ccc3ccccc3c2)c1=O` (stereo not given), the pKi was 6.93.
As for `CCC(C(=O)N[C@@H](CC(=O)O)C(=O)CN(C)CCCC(N)=O)n1cccc(NC(=O)c2ccc3ccccc3c2)c1=O` (stereo not given in full), the pKi is 7.43.
Turning to `CCCCN(CC)CC(=O)[C@H](CC(=O)O)NC(=O)C(CC)n1cccc(NC(=O)c2ccc3ccccc3c2)c1=O` (stereo not given in full), the pKi was 8.64.
For `CCCCCCN(C)CC(=O)[C@H](CC(=O)O)NC(=O)C(CC)n1cccc(NC(=O)c2ccc3ccccc3c2)c1=O` (stereo not given in full), the pKi was 8.75.
Turning to `CCC(C(=O)NC(CC(=O)O)C(=O)CN1CCCCC1)n1cccc(NC(=O)c2ccc3ccccc3c2)c1=O` (stereo not given), the pKi was 8.40.
Next, `CCC(C(=O)NC(CC(=O)O)C(=O)CNC(=O)c1ccccc1)n1cccc(NC(=O)c2ccc3ccccc3c2)c1=O` (stereo not given): 7.24; `CCCCNCC(=O)[C@H](CC(=O)O)NC(=O)C(CC)n1cccc(NC(=O)c2ccc3ccccc3c2)c1=O` (stereo not given in full): 9.12; `CCCCCC(=O)NCC(=O)C(CC(=O)O)NC(=O)C(CC)n1cccc(NC(=O)c2ccc3ccccc3c2)c1=O` (stereo not given): 7.46.
With `CCCCCCNCC(=O)[C@H](CC(=O)O)NC(=O)C(CC)n1cccc(NC(=O)c2ccc3ccccc3c2)c1=O` (stereo not given in full), the pKi was 9.07.
In the case of `CCC(C(=O)N[C@@H](CC(=O)O)C(=O)CN(C)[C@@H](Cc1ccccc1)C(N)=O)n1cccc(NC(=O)c2ccc3ccccc3c2)c1=O` (stereo not given in full), the pKi was 6.59.
With `CCC(C(=O)N[C@@H](CC(=O)O)C(=O)CN(C)CCc1ccccc1)n1cccc(NC(=O)c2ccc3ccccc3c2)c1=O` (stereo not given in full) the figure was 8.32.
With `CCC(C(=O)N[C@@H](CC(=O)O)C(=O)CN[C@H](Cc1ccccc1)C(N)=O)n1cccc(NC(=O)c2ccc3ccccc3c2)c1=O` (stereo not given in full) the figure was 7.60; with `CCCCCCN(CCCCCC)CC(=O)[C@H](CC(=O)O)NC(=O)C(CC)n1cccc(NC(=O)c2ccc3ccccc3c2)c1=O` (stereo not given in full), 8.62.
`CCC(C(=O)N[C@@H](CC(=O)O)C(=O)CNCCCc1ccccc1)n1cccc(NC(=O)c2ccc3ccccc3c2)c1=O` (stereo not given in full): the pKi is 8.94.
With `CCC(C(=O)NC(CC(=O)O)C(=O)CN1CCC(C(N)=O)CC1)n1cccc(NC(=O)c2ccc3ccccc3c2)c1=O` (stereo not given), the pKi is 7.94.
With `CCC(C(=O)N[C@@H](CC(=O)O)C(=O)CNCc1ccccc1)n1cccc(NC(=O)c2ccc3ccccc3c2)c1=O` (stereo not given in full) the figure was 8.52; with `CCC(C(=O)NC(CC(=O)O)C(=O)CN1CCCC1)n1cccc(NC(=O)c2ccc3ccccc3c2)c1=O` (stereo not given), 8.14; with `CCC(C(=O)NC(CC(=O)O)C(=O)Cn1ccccc1=O)n1cccc(NC(=O)c2ccc3ccccc3c2)c1=O` (stereo not given), 5.78.
For the compound `CCC(C(=O)N[C@@H](CC(=O)O)C(=O)CN(C)C)n1cccc(NC(=O)c2ccc3ccccc3c2)c1=O` (stereo not given in full), the pKi was 7.64.
